The text below walks through data of patent publication US8809052B2, “Methods of generating mature oligodendrocytes” (Yeda Research and Development Co. Ltd., priority 2006, dated 2014).

“Also recorded” adds a separate entry of the source.

Assay [1] concerns human ES cell-derived neuroglial sphere cells. The assay can be described thus: Count of O4+ cells with oligodendrocyte branching morphology per field after terminal differentiation. Format: cell-based. As to the method: Differentiation of ES cells into oligodendrocytes—The following steps were taken for initiating ES cell differentiation:
1. Step T: Transition step—Collagenase detached huESC colonies pooled from six 6-well plates, into a 15 ml tube supplemented with ES1 medium, were let to sediment by gravity for about 30 minutes in the incubator (37° C.). Colonies were then washed once in ES1 medium and then transferred to 12×6 cm tissue culture plates in 5 ml transition medium (T-medium) consisting of 50% (v/v) ES1 medium, and 50% (v/v) of ITTSPP/B27 medium. Growth factors (GF), recombinant human EGF (20 ng/ml, R&D Systems, Minneapolis, Minn.) and recombinant human bFGF (4 ng/ml, Biotest, Dreieich, Germany) were added to the transition medium. Thereafter (1 d), some cells adhered but the bulk of huESC colonies and aggregates remained in suspension and were transferred to 12 bacterial (non-adherent) plates in the same transition medium and cultured for 1 day. Then, 10 μM retinoic acid (RA, Sigma-Aldrich, St. Lewis, Mo.) was added to the T-medium and cells were cultured for an additional day.
2. Step R: Retinoic acid treatment—The medium was switched to ITTSPP/B27 containing 20 ng/ml of EGF and 10 μM RA. Medium was changed every day for 7 days, and colonies were concentrated by gravity, without centrifugation.
3. Step S: Suspension culture—During this step, which allows for ripening of neurospheres (NS), the aggregates were cultured in ITTSPP/B27 medium supplemented with 20 ng/ml EGF, for 18 days, changing medium every two days. The ITTSPP/B27 medium was, or was not supplemented with 50 ng/ml Noggin-Fc chimera (R&D systems, Minneapolis, Minn.), in order to examine the effect of noggin.
4. Steps M1,2: Adherence to matrigel-coated plates—Spheres or aggregates from one original 6-well plate were distributed to another 6-well plate which had been coated for 1.5 hours at room temperature with matrigel (Matrigel low growth factor concentration; BD Biosciences, Clontech, Palo Alto, Calif., diluted 1:30 in DMEM/F12 Pen-Strep). After one day, the unbound aggregates were discarded and fresh ITTSPP/B27 medium, supplemented with 20 ng/ml EGF, was added. Medium was changed every 3-4 days.
5. Passage with trypsin—Following 1-2 weeks, aggregates were detached and partially dissociated by a short treatment with trypsin 0.05% (2-3 min, 37° C.; Biological industries, Beit Haemek, Israel, diluted in PBS, —Ca and —Mg). Trypsin was rapidly neutralized by addition of 4 volumes of BSA (2 mg/ml; Sigma for Tissue culture) in ITTSPP/B27, and centrifugation at (200 rpm, 10 min), followed by another wash with BSA. This treatment dissociates the aggregates to small clusters that are seeded again onto matrigel-coated plates (at dilution 1:3), in ITTSPP/B27, 20 ng/ml EGF, for another 1-2 weeks (step M2).
(§1) 6. Steps F1,2: Terminal differentiation on matrigel—In step F1 (3 days), the medium was changed to ITTSPP/B27 containing EGF 5 ng/ml and bFGF 5 ng/ml, together with mouse laminin 1 μg/ml, and Vit C (50 μg/ml; Sigma-Aldrich, St. Lewis, Mo.). Some of the wells were treated with noggin (50 ng/ml Noggin-Fc chimera; R&D systems, Minneapolis, Minn.), 2 days after seeding, and noggin was continued thereafter. In step F2, cells were cultured 6 or 10 days in the same medium without growth factor, but with or without noggin. The medium was changed every two to four days.
Immunostaining—Cells were fixed in 12 or 24-well tissue culture plastic plates with 4% paraformaldehyde (PFA), washed with PBS, and kept at 4° C. before staining. Non-specific staining was blocked with normal goat serum (5% w/v in PBS) for 30 min at RT. Thereafter primary mouse monoclonal (mMc) antibodies, diluted in 1% goat serum, were administered. Antibodies used were: anti PDGFR (mMc IgG1, Santa Cruz, 1:500), O4 (mMc IgM, R&D Systems, 1:1000), O1 (mMc IgM, received from Dr Sheila Harroch, Pasteur Institute, Paris), anti tubulin-βIII (mMc IgG1, Cowance, 1:1000), and antibody 1281 (human nuclei antigen HNA, Chemicon). […]

Another assay relates to human ES cells. Put plainly: RT-PCR gene expression at the different culture steps. Format: cell-based. As to the method: RT-PCR—total RNA was isolated from cultures at different culture steps using Tri-Reagent (Molecular Research Center, Cincinnati, Ohio) and RT-PCR was carried out by standard technology as previously described (Slutsky et al., 2003). Expression was checked for the following genes, as described in table 2 below, including the expression of the control gene G3PDH. Also provided in the table are primer sequences used for each gene. For G3PDH, primers from Clontech (Palo Alto, Calif., catalog #9805-1) were used.

In assay [2] the test system is human ES cell-derived oligodendrocytes. Put plainly: Number of MBP+ oligodendrocytes by immunostaining. Conditions: step F2, 10 days without GF, noggin vs without noggin; FIG. 2g. Format: cell-based. As to the method: as §1
Immunostaining—Cells were fixed in 12 or 24-well tissue culture plastic plates with 4% paraformaldehyde (PFA), washed with PBS, and kept at 4° C. before staining. Non-specific staining was blocked with normal goat serum (5% w/v in PBS) for 30 min at RT. Thereafter primary mouse monoclonal (mMc) antibodies, diluted in 1% goat serum, were administered. […] An Olympus IX-70 FLA microscope with a DVC-1310C digital camera (DVC, Austin, Tex.) was used and images were processed with Photoshop and analyzed with Image-ProPlus software (Media Cybernetics, Silver Spring, Md.), in order to measure Integrated Optic Density (IOD) of color-specific pixels and MBP fiber length. […]

For a further assay, the system named is Shiverer mice. The assay can be described thus: Transplantation of huES-NSc into brain of shiverer mice, MBP-stained fibers. Conditions: FIG. 4e. Format: in vivo, mouse. The text has this:
Animal model—Shiverer mice have an extensive deletion in the MBP gene (Roach et al., 1985) and in a homozygous shi−/− animal there is no MBP immunoreactivity in the CNS. The appearance of fibers showing immunostaining for MBP following transplantation of oligodendrocyte precursors therefore indicates, that the transplanted cells have the capacity to myelinate endogenous neurons (Lachapelle et al., 1983).
Transplantation of huES-NSc in Shiverer mice—For transplantation, ES cell-derived dissociated neuroglial sphere cells (huEs-NSc) were prepared as described in Example 3. The culture steps from step T to step D3 that were followed, are outlined in Table 1 condition 3. in Example 1. However, Step D3 was for 9 days, with and without 50 ng/ml noggin. Growth factors were then removed for one day, during which 1 μg/ml laminin, and 50 μg/m Vit C were added to the N2/B27 medium (step F2, as described in Example 1). The culture was thereafter subjected to the short trypsin treatment (see Example 1) and the cells were injected intraventricularly to homozygous shiverer mice. One day old shi/shi pups were anesthetized by brief hypothermia and received an injection of 10^5 cells in 2 μl, over a period of 3 minutes, into the brain third ventricule, using a Hamilton 10 μl syringe. The pups were then warmed and returned to their mothers. […]

The subject of a further assay is shiverer brain slices. Put plainly: Ex vivo transplantation of human ES-NSc on shiverer brain slices (organotypic cultures), MBP staining and electron microscopy. Format: cell-based, mouse. The method, then:
Immunostaining—Cells were fixed in 12 or 24-well tissue culture plastic plates with 4% paraformaldehyde (PFA), washed with PBS, and kept at 4° C. before staining. Non-specific staining was blocked with normal goat serum (5% w/v in PBS) for 30 min at RT. Thereafter primary mouse monoclonal (mMc) antibodies, diluted in 1% goat serum, were administered. Antibodies used were: anti PDGFR (mMc IgG1, Santa Cruz, 1:500), O4 (mMc IgM, R&D Systems, 1:1000), O1 (mMc IgM, received from Dr Sheila Harroch, Pasteur Institute, Paris), anti tubulin-βIII (mMc IgG1, Cowance, 1:1000), and antibody 1281 (human nuclei antigen HNA, Chemicon). Following overnight exposure to the appropriate antibody (4° C.), biotinylated goat anti-mouse IgG1 (Southern Biotech, 1:50) was added for 30 minutes, followed by Cy3-tagged streptavidine (ABC laboratories, 1:2000). […] Staining for MBP was with rat monoclonal anti MBP (ab7349, AbCam, 1/500), and Cy3-conjugated Affipure goat anti rat IgG (Jackson laboratories, 1:500). […] An Olympus IX-70 FLA microscope with a DVC-1310C digital camera (DVC, Austin, Tex.) was used and images were processed with Photoshop and analyzed with Image-ProPlus software (Media Cybernetics, Silver Spring, Md.), in order to measure Integrated Optic Density (IOD) of color-specific pixels and MBP fiber length. […]

Where [3] appears, read: Dissociated cells, Passage 2, listed as noggin.
The mark [4] stands for this setting: On Matrigel, noggin added at Step S.
The mark [5] stands for this setting: On Matrigel, noggin added at Steps F and S.

Noggin: the “oligodendrocytes formed in the differentiation step” value in assay [1] (Dissociated cells, passage 2, noggin added at the early step S) was 1.77±1.2. The “Fold (with vs without noggin), number of oligodendrocytes per field” value in assay [1] (Dissociated cells, Passage 2) is 9.1; in assay [1] (setting [3]), 9; in assay [1] (Dissociated cells, Passage 3), 7.1; in assay [1] (Dissociated cells, Passage 4), 6.0; in assay [1] (On Matrigel, noggin added at Step F) it was 8.7; in assay [1] (setting [4]) it was 2.2. In assay [1] (setting [5]), the “Fold (with vs without noggin), number of oligodendrocytes per field” value was 4.4. Moreover, the “Number of oligodendrocytes per field” value in assay [1] (Dissociated cells, Passage 2) worked out at 5.20 ± 1.7; in assay [1] (setting [3]) it was 5.20±1.7; in assay [1] (Dissociated cells, Passage 3), 10.14 ± 5.2; in assay [1] (Dissociated cells, Passage 4), 12.05 ± 3.6; in assay [1] (On Matrigel, noggin 50 ng/ml added at Step F, 6 days without growth factors, fields of 0.4 mm^2), 5.76 ± 4.2; in assay [1] (setting [4]) it was 1.50 ± 1.4. Also, the “Number of oligodendrocytes per field” value in assay [1] (setting [5]) turned out to be 2.95 ± 1.7. Further, the “O4+ cells with ramified oligodendrocyte shape as share of total cells” value in assay [1] (Dissociated cells, Passage 2) is “about 5%”. For the same substance, the “total O4+ cells as share of total cells” value in assay [1] (Dissociated cells, Passage 2) is “about 15%”. Besides, the “proportion of oligodendrocytes of the total cells in the culture” value in assay [1] (after sub-passages (passages 3 and 4), noggin during steps D and F) was 43%. The “number of well-developed oligodendrocytes displaying ramified branches” value in assay [1] (on matrigel, 10 days without growth factors, FIGS. 1g-h) is reported as “strong effect”. The “expression of Oct4 and Rex1” value with human ES cells (after step S with noggin) is on record as “down-regulated”. For the same substance, in the assay on human ES cells (after step S with noggin), the “expression of myelin proteolipid protein (PLP)” value is given as “increasing”. The “expression of PDGF-Rα” value with human ES cells (after step S with noggin, FIG. 1a lane 3) is reported as “decreased”. Moreover, the “expression of Nkx2.2 and Sox10” value in the assay with human ES cells (after step S, noggin 50 ng/ml, FIG. 1a lane 3) is “seen only when noggin was added”. In assay [2], the “number of MBP+ oligodendrocytes” value was “very significant stimulation; also recorded: strong stimulation”. In the assay with Shiverer mice (cells cultured with vs without noggin), the “number of MBP fibers/field” value is given as “increased”. Also, in the assay with Shiverer mice (huES-NSc treated 9 days with 50 ng/ml noggin at step D3, injected into third ventricule, four weeks), the “increase in the number of MBP fibers” value is reported as 3.5-4 fold. Also, the “myelin by electron microscopy” value in the assay on shiverer brain slices (brain tissue transplanted with noggin-treated huES-NS cells, FIG. 5e,f) is “compacted myelin sheaths, with major dense lines, were formed”. In the assay on shiverer brain slices (noggin-treated vs untreated huES-NS cells, two weeks after implantation, FIG. 5g), the “overall myelinating capacity (extent of MBP staining and mean length of MBP+ fibers)” value was “markedly enhanced”.
Turning to “bFGF: recombinant human basic fibroblast growth factor”, the “effect of addition at step S (ripening of neurospheres)” value in assay [1] (bFGF 20 ng/ml at step S) is given as “not found to be helpful”. Besides, the “oligodendrocytes formed in the final differentiation step F” value in assay [1] (bFGF alternating with EGF during step S (without noggin), step F with noggin) is given as 0.66±0.5. Further, in assay [1] (combination of bFGF and EGF at step D2), the “expansion of dissociated precursor cells” value is “better than EGF alone”. The “induction of Nkx2.2” value with human ES cells (protocol based on bFGF treatment with neither RA nor noggin, FIG. 1b) was “failed to induce Nkx2.2”.
